Results from patent US20100267561A1, “HERBICIDAL PYRIDAZINONE DERIVATIVES” (priority 2007, published 2010).

How the values were obtained:
Assay type in all cases: in vivo
[1] = tested on: corn (Zea mays); assay: Test B pre-/postemergence plant response
Summary of the method: (§1)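 Visual scoring from 0 (no effect) to 100 (complete control) against untreated controls was done 13 to 15 days after greenhouse treatment. Chemicals were formulated in a surfactant-containing non-phytotoxic solvent and applied to soil preemergence or to 1- to 4-leaf (2-18 cm) plants postemergence.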

[2] = tested on: morningglory (Ipomoea coccinea); assay: Test B pre-/postemergence plant response
Summary of the method: as §1

[3] = tested on: lambsquarters (Chenopodium album); assay: Test B pre-/postemergence plant response
Summary of the method: as §1

[4] = tested on: giant foxtail (Setaria faberii); assay: Test B pre-/postemergence plant response
Summary of the method: as §1

[5] = tested on: velvetleaf (Abutilon theophrasti); assay: Test B pre-/postemergence plant response
Summary of the method: as §1

[6] = tested on: bermudagrass (Cynodon dactylon); assay: Test B pre-/postemergence plant response
Summary of the method: as §1

[7] = tested on: eastern black (E.B.) nightshade (Solanum ptycanthum); assay: Test B pre-/postemergence plant response; settings: Preemergence
Summary of the method: as §1

[8] = tested on: yellow nutsedge (Cyperus esculentus); assay: Test B pre-/postemergence plant response
Summary of the method: as §1

[9] = tested on: blackgrass (Alopecurus myosuroides); assay: Test B pre-/postemergence plant response
Summary of the method: as §1

[10] = tested on: wild oat (Avena fatua); assay: Test B pre-/postemergence plant response
Summary of the method: as §1

[11] = tested on: barnyardgrass (Echinochloa crus-galli); assay: Test B flooded paddy test plant response
Summary of the method: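 2-leaf plants; pots flooded 3 cm above soil; compound added to paddy water; depth maintained. Greenhouse 13–15 d. Visual rating vs controls, 0 (no effect) to 100 (complete control); dash = no result.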

[12] = tested on: windgrass (Apera spica-venti); assay: Test B postemergence plant response; settings: Postemergence
Summary of the method: (§2)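 Emerged plants, 1- to 4-leaf stage, treated; greenhouse 13–15 d; eye-scored vs untreated controls (0–100 scale).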

[13] = tested on: canarygrass (Phalaris minor); assay: Test B postemergence plant response; settings: Postemergence
Summary of the method: as §2

[14] = tested on: winter barley (Hordeum vulgare); assay: Test B postemergence plant response; settings: Postemergence
Summary of the method: as §2

[15] = tested on: chickweed (Stellaria media); assay: Test B postemergence plant response; settings: Postemergence
Summary of the method: as §2

[16] = Postemergence, 31 g ai/ha, scale 0 to 100, 0 no effect, 100 complete control
[17] = Postemergence, 62 g ai/ha, scale 0 to 100
[18] = Postemergence, 125 g ai/ha, scale 0 to 100
[19] = Postemergence, 250 g ai/ha, scale 0 to 100
[20] = Preemergence, 31 g ai/ha, 0 to 100 scale, 0 no effect, 100 complete control
[21] = Preemergence, 62 g ai/ha, scale 0 to 100
[22] = Preemergence, 125 g ai/ha, scale 0 to 100
[23] = Preemergence, 250 g ai/ha, scale 0 to 100
[24] = 250 g ai/ha, preemergence, 0-100 scale
[25] = 31 g ai/ha, scale 0 to 100, 0 no effect, 100 complete control

Cc1cc(-c2ccc(Br)cc2)nn1-c1c(OC(=O)OC(C)C)cnn(C)c1=O [Compound 6]
Plant response rating, Corn [1, 16]: 95 | Plant response rating, Corn [1, 17]: 95 | Plant response rating, Corn [1, 18]: 100 | Plant response rating, Corn [1, 19]: 100 | Plant response rating, Corn [1, 20]: 95 | Plant response rating, Corn [1, 21]: 98 | Plant response rating, Corn [1, 22]: 98 | Plant response rating, Corn [1, 23]: 100 | Plant response rating, Morningglory [2, 16]: 0 | Plant response rating, Morningglory [2, 17]: 0 | Plant response rating, Morningglory [2, 18]: 0 | Plant response rating, Morningglory [2, 19]: 50 | Plant response rating, Morningglory [2, 20]: 0 | Plant response rating, Morningglory [2, 21]: 0 | Plant response rating, Morningglory [2, 22]: 0 | Plant response rating, Morningglory [2, 23]: 0 | Plant response rating, Lambsquarters [3, 16]: 0 | Plant response rating, Lambsquarters [3, 17]: 0 | Plant response rating, Lambsquarters [3, 18]: 20 | Plant response rating, Lambsquarters [3, 19]: 70 | Plant response rating, Lambsquarters [3, 20]: 0 | Plant response rating, Lambsquarters [3, 22]: 85 | Plant response rating, Lambsquarters [3, 23]: 95 | Plant response rating, Foxtail, Giant [4, 16]: 100 | Plant response rating, Foxtail, Giant [4, 17]: 100 | Plant response rating, Foxtail, Giant [4, 18]: 100 | Plant response rating, Foxtail, Giant [4, 19]: 100 | Plant response rating, Foxtail, Giant [4, 20]: 100 | Plant response rating, Foxtail, Giant [4, 21]: 100 | Plant response rating, Foxtail, Giant [4, 22]: 100 | Plant response rating, Foxtail, Giant [4, 23]: 100 | Plant response rating, Velvetleaf [5, 16]: 0 | Plant response rating, Velvetleaf [5, 17]: 0 | Plant response rating, Velvetleaf [5, 18]: 0 | Plant response rating, Velvetleaf [5, 19]: 10 | Plant response rating, Velvetleaf [5, 20]: 0 | Plant response rating, Velvetleaf [5, 21]: 0 | Plant response rating, Velvetleaf [5, 22]: 0 | Plant response rating, Velvetleaf [5, 23]: 40 | Bermudagrass plant response rating [6, 24]: 100 | Plant response rating, Bermudagrass [6, 16]: 100 | Plant response rating, Bermudagrass [6, 17]: 100 | Plant response rating, Bermudagrass [6, 18]: 100 | Plant response rating, Bermudagrass [6, 19]: 100 | Plant response rating, Bermudagrass [6, 20]: 100 | Plant response rating, Bermudagrass [6, 21]: 100 | Plant response rating, Bermudagrass [6, 22]: 100 | Plant response rating, Nightshade, E. B. ([7]; 31 g ai/ha, 0 to 100 scale, 0 no effect, 100 complete control): 0 | Plant response rating, Nightshade, E. B. ([7]; 125 g ai/ha, scale 0 to 100): 90 | Plant response rating, Nightshade, E. B. ([7]; 250 g ai/ha, scale 0 to 100): 90 | Plant response rating, Nutsedge, Yellow [8, 16]: 0 | Plant response rating, Nutsedge, Yellow [8, 17]: 0 | Plant response rating, Nutsedge, Yellow [8, 18]: 0 | Plant response rating, Nutsedge, Yellow [8, 19]: 0 | Plant response rating, Nutsedge, Yellow [8, 20]: 0 | Plant response rating, Nutsedge, Yellow [8, 21]: 0 | Plant response rating, Nutsedge, Yellow [8, 22]: 0 | Plant response rating, Nutsedge, Yellow [8, 23]: 0 | Blackgrass plant response rating [9, 24]: 100 | Plant response rating, Blackgrass [9, 16]: 100 | Plant response rating, Blackgrass [9, 17]: 100 | Plant response rating, Blackgrass [9, 18]: 100 | Plant response rating, Blackgrass [9, 19]: 100 | Plant response rating, Blackgrass [9, 20]: 80 | Plant response rating, Blackgrass [9, 21]: 100 | Plant response rating, Blackgrass [9, 22]: 100 | Plant response rating, Oat, Wild [10, 16]: 100 | Plant response rating, Oat, Wild [10, 17]: 100 | Plant response rating, Oat, Wild [10, 18]: 100 | Plant response rating, Oat, Wild [10, 19]: 100 | Plant response rating, Oat, Wild [10, 20]: 50 | Plant response rating, Oat, Wild [10, 21]: 50 | Plant response rating, Oat, Wild [10, 22]: 85 | Plant response rating, Oat, Wild [10, 23]: 85 | Plant response rating, Barnyardgrass ([11]; Flood (flooded paddy test), 62 g ai/ha, scale 0 to 100, 0 no effect, 100 complete control): 40 | Plant response rating, Barnyardgrass ([11]; Flood (flooded paddy test), 125 g ai/ha, scale 0 to 100, 0 no effect, 100 complete control): 80 | Plant response rating, Barnyardgrass ([11]; Flood (flooded paddy test), 250 g ai/ha, scale 0 to 100, 0 no effect, 100 complete control): 90 | Plant response rating, Barnyardgrass ([11]; Flood, 31 g ai/ha, scale 0 to 100): 0 | Plant response rating, Windgrass [12, 25]: 90 | Plant response rating, Windgrass ([12]; 62 g ai/ha, scale 0 to 100): 95 | Plant response rating, Windgrass ([12]; 125 g ai/ha, scale 0 to 100): 100 | Plant response rating, Windgrass ([12]; 250 g ai/ha, scale 0 to 100): 100 | Plant response rating, Canarygrass [13, 25]: 95 | Plant response rating, Canarygrass ([13]; 62 g ai/ha, scale 0 to 100): 95 | Plant response rating, Canarygrass ([13]; 125 g ai/ha, scale 0 to 100): 100 | Plant response rating, Canarygrass ([13]; 250 g ai/ha, scale 0 to 100): 100 | Plant response rating, Barley [14, 25]: 30 | Plant response rating, Barley ([14]; 62 g ai/ha, scale 0 to 100): 30 | Plant response rating, Barley ([14]; 125 g ai/ha, scale 0 to 100): 80 | Plant response rating, Barley ([14]; 250 g ai/ha, scale 0 to 100): 80 | Plant response rating, Chickweed [15, 25]: 0 | Plant response rating, Chickweed ([15]; 62 g ai/ha, scale 0 to 100): 0 | Plant response rating, Chickweed ([15]; 125 g ai/ha, scale 0 to 100): 0 | Plant response rating, Chickweed ([15]; 250 g ai/ha, scale 0 to 100): 0
